Measurements: PMC11207040, “Synthesis and Biological Studies of New Temporin A Analogs Containing Unnatural Amino Acids in Position 7” (Pharmaceutics, 2024)
Converted amounts (≈) assume the structure as drawn. Non-standard residues stand in square brackets, D forms with d. Residues, ends and D or L forms follow the SMILES beside them. Dab = NCC[C@H](N)C(=O)O

Columns and labels:
MDA-MB-231 cells = assay: MTT antiproliferative assay, MDA-MB-231; format: cell-based, human; conditions: for IC50: MTT, 72 h, read-out: Mean IC50 ± SD, MDA-MB-231; for SI (Selectivity Index), MDA-MB-231: SI = IC50 MCF-12F/IC50 tumor cells
Procedure: (§1) The cell lines BALB 3T3 (mouse embryonic fibroblasts) and MCF-12F (human breast epithelial cells) were used as models for healthy tissue. The MCF-7 and MDA-MB-231 cell lines were used as in vitro models for luminal A- and basal B-type breast cancer, respectively. Cell lines were obtained from the American Type Cultures Collection (ATCC, Manassas, VA, USA). Cells were cultured in Dulbecco modified Eagle’s medium (DMEM) supplemented with 10% fetal bovine serum (FBS), 100 U/mL penicillin, and 0.1 mg/mL streptomycin (Sigma-Aldrich, Schnelldorf, Germany) in an incubator at 37 °C, 5% CO2 and 95% humidity. Plastic flasks 75 cm^2 (Biologix, Lenexa, KS, USA) were used to grow the cells.
(§2) The antiproliferative activity testing was performed on cell cultures using the MTT-dye reduction assay. This assay is based on the metabolism of MTT to insoluble formazan by mitochondrial reductases. The formazan concentration can be determined spectrophotometrically. The measured absorption is an indicator of cell viability. Cell lines (MCF-12F, MCF-7 and MDA-MB-231) were used in the experiments. Cells were plated at a density of 1 × 10^3 cells/100 µL in each well of 96-well microplates and allowed to adhere for 24 h before treatment with test compounds. A concentration range from 4 to 1000 μM was applied for 72 h. The formazan absorption was registered using a microplate reader at λ = 540 nm. Antiproliferative activities were expressed as IC50 values (concentrations required for 50% inhibition of cell growth).

[1] = test system: Arthrobacter oxydans NBIMCC 9333; format: cell-based; conditions: broth dilution, 0 to 320 µg/mL, 24 h; NI = no inhibition monitored
Procedure: (§3) The parent peptide Temporin A and the novel analogs were subjected to tests against model strains Escherichia coli NBIMCC 8785, Bacillus subtilis NBIMCC 3562, Arthrobacter oxydans NBIMCC 9333, Pseudomonas aeruginosa NBIMCC 3700, and Candida albicans NBIMCC 74, for the assessment of their antimicrobial activity. The strains were acquired from the National Bank for Industrial Microorganisms and Cell Cultures (NBIMCC, Bulgaria). The strain E. coli 8785 was cultured in Luria-Bertani broth (LB, HiMedia, Mumbai, India); B. subtilis 3562—in nutrient broth (NB, HiMedia, Mumbai, India); A. oxydans 9333; P. aeruginosa 3700—in meat peptone agar (MPA) medium; and C. albicans 74—in yeast mold (YM) medium. An incubator shaker ES-20/60 (Biosan, Latvia) was used for the cultivation and was set to 30 °C for B. subtilis 3562, A. oxydans 9333, and C. albicans 74; and 37 °C for E. coli 8785 and P. aeruginosa 3700, with a 24 h shaking period at 120 rpm. The microbial cultures were then adjusted to a turbidity of 0.5 McFarland using a Grant-bio DEN-1B densitometer (Grant Instruments, Royston, UK) for further use.
(§4) The minimal inhibitory concentration (MIC) of the peptides was determined using the broth dilution method. Stock solutions of the peptides with a concentration of 10 mg/mL in 10% EtOH/H2O were prepared. Suspensions of the bacteria in the corresponding media were added to 96-well U-shaped bottom polystyrene plates (Deltalab S.L., Spain) and exposed to the peptide in the concentration range from 0 to 320 µg/mL, and a 10% EtOH/H2O control, diluted using the same scheme as the peptides, was also used. The plates were then incubated under aerobic conditions at the corresponding temperature for 24 h. The MIC (µg/mL) was assumed as the lowest concentration of the antimicrobial, where there was visible inhibition of the strain. The absorbance was measured at 630 nm (Microplate reader PKL PPC 142, Paramedical srl, Salerno, Italy). To determine the minimal bactericidal concentration (MBC) and minimal fungicidal concentration (MFC), 10 μL from concentrations greater than or equal to the MIC was placed on the corresponding solid nutrient medium. The Petri dishes were then incubated at 30 or 37 °C for 24 h. All experiments were conducted in a triplicate.

[2] = test system: Bacillus subtilis NBIMCC 3562; format: cell-based; conditions: broth dilution, 0 to 320 µg/mL, 24 h; NI = no inhibition monitored
Procedure: as §3, §4

[3] = test system: Pseudomonas aeruginosa NBIMCC 3700; format: cell-based; conditions: broth dilution, 0 to 320 µg/mL, 24 h; NI = no inhibition monitored
Procedure: as §3, §4

[4] = test system: Escherichia coli NBIMCC 8785; format: cell-based; conditions: broth dilution, 0 to 320 µg/mL, 24 h; NI = no inhibition monitored
Procedure: as §3, §4

MCF-7 cells = assay: MTT antiproliferative assay, MCF-7; format: cell-based, human; conditions: for IC50: MTT, 72 h, read-out: Mean IC50 ± SD, MCF-7; for SI (Selectivity Index), MCF-7: SI = IC50 MCF-12F/IC50 tumor cells
Procedure: as §1, §2

MCF-12F cells = assay: MTT antiproliferative assay, MCF-12F; format: cell-based, human; conditions: 72 h, non-tumorigenic cell line, read-out: Mean IC50 ± SD, MCF-12F
Procedure: as §1, §2

BALB 3T3 clone A31 cells = assay: 3T3 NRU cytotoxicity/phototoxicity test; format: cell-based, mouse; conditions: PIF = CC50 −Irr/CC50 +Irr; PIF < 2 = not phototoxic
Procedure: as §1
(§5) The cytotoxicity/phototoxicity testing was performed as described by the OECD Guidelines for the Testing of Chemicals, Section 4, Test No. 432: In Vitro 3T3 NRU Phototoxicity Test. BALB 3T3, clone A31 cells were grown in 75 cm^2 tissue culture flasks in DMEM high-glucose (4.5 g/L), 10% FBS, and antibiotics at 37.5 °C, in a humidified atmosphere under 5% CO2. Cells were plated at 1 × 10^4 cells / 100 μL culture medium in each well of 96-well microplates and allowed to adhere for 24 h before treatment with test compounds. Peptides were dissolved in DMSO and diluted with culture medium to working concentrations from 4 to 1000 μM. In phototoxicity tests, 96-well plates were irradiated (+Irr) with a dose of 2.4 J/cm^2 using an artificial solar light simulator Helios-iO (SERIC Ltd., Tokyo, Japan), and the cells were incubated for an additional 24 h. After treatment with a Neutral Red medium, washing, and application of the NR Desorb solution, the absorption was measured on a microplate reader at a wavelength of 540 nm. Cytotoxicity/phototoxicity was expressed as CC50 values (concentrations required for 50% cytotoxicity).

[5] = 3T3 NRU cytotoxicity/phototoxicity test; format: cell-based, mouse; conditions: mouse; for CC50: cytotoxicity, no irradiation, BALB 3T3 clone A31, Neutral Red uptake, read-out: Mean CC50 ± SD, −Irr; for CC50 at 24 h: phototoxicity, irradiated 2.4 J/cm^2, BALB 3T3 clone A31, Neutral Red uptake, read-out: Mean CC50 ± SD, +Irr
Procedure: as §1, §5

## CC[C@H](C)[C@H](NC(=O)CNC(=O)[C@H](CO)NC(=O)[C@H](CC(C)C)NC(=O)[C@@H](NC(=O)[C@H](CCN)NC(=O)CNC(=O)[C@@H](NC(=O)[C@H](CC(C)C)NC(=O)[C@@H]1CCCN1C(=O)[C@H](CC(C)C)NC(=O)[C@@H](N)Cc1ccccc1)[C@@H](C)CC)C(C)C)C(=O)N[C@@H](CC(C)C)C(N)=O [DTDab, FLPLIG-Dab-VLSGIL-NH2] (H-FLPLIG[Dab]VLSGIL-NH2; N-terminus assumed)
MDA-MB-231 cells
  IC50: 174.9 ± 1.35 µM
  SI (Selectivity Index), MDA-MB-231: 1.60
[1]
  MIC, A. oxydans 9333: 320 µg/mL (≈ 239 µM)
[2]
  MIC, B. subtilis 3562: 160 µg/mL (≈ 119 µM)
[3]
  MIC, P. aeruginosa 3700: 320 µg/mL (≈ 239 µM)
[4]
  MIC, E. coli 8785: 320 µg/mL (≈ 239 µM)
MCF-7 cells
  IC50: 157 ± 4.97 µM
  SI (Selectivity Index), MCF-7: 1.78
MCF-12F cells
  IC50: 280 ± 13.6 µM
BALB 3T3 clone A31 cells
  PIF (photo irritation factor): 1.01
[5]
  CC50: 210 ± 6.69 µM
  CC50 at 24 h: 207 ± 7.41 µM

## CC[C@H](C)[C@H](NC(=O)CNC(=O)[C@H](CO)NC(=O)[C@H](CC(C)C)NC(=O)[C@@H](NC(=O)[C@H](CCCCN)NC(=O)CNC(=O)[C@@H](NC(=O)[C@H](CC(C)C)NC(=O)[C@@H]1CCCN1C(=O)[C@H](CC(C)C)NC(=O)[C@@H](N)Cc1ccccc1)[C@@H](C)CC)C(C)C)C(=O)N[C@@H](CC(C)C)C(N)=O [DTF, FLPLIG-K-VLSGIL-NH2, reference compound] (H-FLPLIGKVLSGIL-NH2)
MDA-MB-231 cells
  IC50: 77 ± 2.92 µM
  SI (Selectivity Index), MDA-MB-231: 1.30
[1]
  MIC, A. oxydans 9333: 80 µg/mL (≈ 58.4 µM)
[2]
  MIC, B. subtilis 3562: 80 µg/mL (≈ 58.4 µM)
[3]
  MIC, P. aeruginosa 3700: 160 µg/mL (≈ 117 µM)
[4]
  MIC, E. coli 8785: 320 µg/mL (≈ 234 µM)
MCF-7 cells
  IC50: 49.8 ± 1.9 µM
  SI (Selectivity Index), MCF-7: 2.02
MCF-12F cells
  IC50: 100 ± 3.3 µM
BALB 3T3 clone A31 cells
  PIF (photo irritation factor): 1.05
[5]
  CC50: 92.4 ± 2.82 µM
  CC50 at 24 h: 88.4 ± 1.48 µM
